Laboratory results reported in US20120295907A1, “INSECTICIDAL COMPOUNDS” (SYNGENTA CROP PROTECTION, LLC, priority 2009, published 2012).

Tests used:
Thrips tabaci = Thrips tabaci (Onion Thrips) sunflower leaf disc spray test; assay type: in vivo; conditions: foliar, 168 h, 200 ppm spray on sunflower leaf discs, population of mixed ages, 7 days, mortality
Plutella xylostella = Plutella xylostella (Diamond Back Moth) artificial diet MTP test; assay type: in vivo; conditions: 144 h, 200 ppm (concentration in well 18 ppm), L2 larvae, 6 days, larval mortality, growth regulation
Tetranychus urticae = Tetranychus urticae (Two-Spotted Spider Mite) bean leaf disc spray test; assay type: in vivo; conditions: foliar, 192 h, 200 ppm spray on bean leaf discs, mite populations of mixed ages, 8 days, egg, larval and adult mortality, read-out: control of Tetranychus urticae
Diabrotica balteata = Diabrotica balteata (Corn Root Worm) artificial diet MTP test; assay type: in vivo; conditions: 120 h, 200 ppm (concentration in well 18 ppm), L2 larvae, 5 days, larval mortality, growth regulation
Spodoptera littoralis = Spodoptera littoralis (Egyptian Cotton Leafworm) cotton leaf disc spray test; assay type: in vivo; conditions: foliar, 72 h, 200 ppm spray on cotton leaf discs, L1 larvae, mortality, feeding behavior, growth regulation 3 DAT
Myzus persicae = Myzus persicae (Green Peach Aphid) sunflower leaf disc spray test; assay type: in vivo; conditions: foliar, 144 h, 200 ppm spray on sunflower leaf discs, aphid population of mixed ages, 6 DAT, mortality
Heliothis virescens = Heliothis virescens (Tobacco Budworm) egg test on artificial diet; assay type: in vivo; conditions: 96 h, 200 ppm (concentration in well 18 ppm), eggs 0-24 h old on artificial diet, 4 days, egg mortality, larval mortality, growth regulation

melting point [°C]	SMILES	pest or weed control at 200 ppm (Thrips tabaci) [%]	pest or weed control at 200 ppm (Plutella xylostella) [%]	pest or weed control at 200 ppm (Tetranychus urticae) [%]	pest or weed control at 200 ppm (Diabrotica balteata) [%]	pest or weed control at 200 ppm (Spodoptera littoralis) [%]	pest or weed control at 200 ppm (Myzus persicae) [%]	pest or weed control at 200 ppm (Heliothis virescens) [%]
250	COc1c(NC(=O)c2c(Cl)cc(Br)cc2Cl)cccc1C(=O)Nc1c(Cl)cc(C(F)(C(F)(F)F)C(F)(F)C(F)(F)F)cc1Br (stereo not drawn) [B209]	–	–	–	–	–	–	–
238	CCOc1cc(C(=O)Nc2cccc(C(=O)Nc3c(Cl)cc(C(F)(C(F)(F)F)C(F)(F)C(F)(F)F)cc3Br)c2OC)ccc1[N+](=O)[O-] (stereo not drawn) [B173]	–	–	–	–	–	–	–
218	COc1c(NC(=O)c2cc(C)c([N+](=O)[O-])c(C)c2)cccc1C(=O)Nc1c(Cl)cc(C(F)(C(F)(F)F)C(F)(F)C(F)(F)F)cc1Br (stereo not drawn) [B165]	–	–	–	–	–	–	–
190	COc1cc([N+](=O)[O-])ccc1C(=O)Nc1cccc(C(=O)Nc2c(Cl)cc(C(F)(C(F)(F)F)C(F)(F)C(F)(F)F)cc2Br)c1OC (stereo not drawn) [B177]	–	–	–	–	–	–	–
208 to 210	COc1c(NC(=O)c2ccc(C#N)cn2)cccc1C(=O)Nc1c(Cl)cc(C(F)(C(F)(F)F)C(F)(F)C(F)(F)F)cc1Br (stereo not drawn) [B208]	–	–	–	–	–	–	–
–	COc1c(NC(=O)c2ccc(F)cc2Cl)cccc1C(=O)Nc1c(C)cc(C(F)(C(F)(F)F)C(F)(F)C(F)(F)F)cc1C (stereo not drawn) [F30]	≥ 80	≥ 80	≥ 80	≥ 80	≥ 80	≥ 80	≥ 80
–	COc1c(NC(=O)c2ccc([N+](=O)[O-])c(N)c2)cccc1C(=O)Nc1c(Cl)cc(C(F)(C(F)(F)F)C(F)(F)C(F)(F)F)cc1Br (stereo not drawn) [B174]	≥ 80	≥ 80	≥ 80	≥ 80	≥ 80	≥ 80	≥ 80
–	COc1c(NC(=O)c2ccc(C#N)cc2)cccc1C(=O)Nc1c(Cl)cc(C(F)(C(F)(F)F)C(F)(F)C(F)(F)F)cc1Cl (stereo not drawn) [C6]	≥ 80	≥ 80	≥ 80	≥ 80	≥ 80	≥ 80	≥ 80
–	COc1c(NC(=O)c2ccccc2C)cccc1C(=O)Nc1c(Cl)cc(C(F)(C(F)(F)F)C(F)(F)C(F)(F)F)cc1Cl (stereo not drawn) [C4]	≥ 80	≥ 80	≥ 80	≥ 80	≥ 80	≥ 80	≥ 80
–	CCc1cc(C(F)(C(F)(F)F)C(F)(F)C(F)(F)F)cc(C)c1NC(=O)c1cccc(NC(=O)c2ccc(Cl)nc2)c1OC (stereo not drawn) [A17]	≥ 80	≥ 80	≥ 80	≥ 80	≥ 80	≥ 80	≥ 80
–	COc1c(NC(=O)c2ccc(C(F)(F)F)cc2)cccc1C(=O)Nc1c(Cl)cc(C(F)(C(F)(F)F)C(F)(F)F)cc1Cl [E13]	≥ 80	≥ 80	≥ 80	≥ 80	≥ 80	≥ 80	≥ 80
113 to 118	COc1c(NC(=O)c2c(C)cc(Cl)cc2Cl)cccc1C(=O)Nc1c(Cl)cc(C(F)(C(F)(F)F)C(F)(F)C(F)(F)F)cc1Br (stereo not drawn) [B211]	–	–	–	–	–	–	–
–	COc1c(NC(=O)c2cc(F)cc(F)c2)cccc1C(=O)Nc1c(Cl)cc(C(F)(C(F)(F)F)C(F)(F)C(F)(F)F)cc1Br (stereo not drawn) [B168]	≥ 80	≥ 80	≥ 80	≥ 80	≥ 80	≥ 80	≥ 80
–	COc1c(NC(=O)c2ccc(C)cc2)cccc1C(=O)Nc1c(Cl)cc(C(F)(C(F)(F)F)C(F)(F)C(F)(F)F)cc1Cl (stereo not drawn) [C8]	≥ 80	≥ 80	≥ 80	≥ 80	≥ 80	≥ 80	≥ 80
–	COc1c(NC(=O)c2ccncc2Cl)cccc1C(=O)Nc1c(Cl)cc(C(F)(C(F)(F)F)C(F)(F)C(F)(F)F)cc1Br (stereo not drawn) [B66]	≥ 80	≥ 80	≥ 80	≥ 80	≥ 80	≥ 80	≥ 80
–	COc1c(NC(=O)c2ccncc2C)cccc1C(=O)Nc1c(Cl)cc(C(F)(C(F)(F)F)C(F)(F)C(F)(F)F)cc1Br (stereo not drawn) [B82]	≥ 80	≥ 80	≥ 80	≥ 80	≥ 80	≥ 80	≥ 80
114 to 115	COc1c(NC(=O)c2cnc(Cl)nc2Cl)cccc1C(=O)Nc1c(Cl)cc(C(F)(C(F)(F)F)C(F)(F)C(F)(F)F)cc1Br (stereo not drawn) [B210]	–	–	–	–	–	–	–
–	COc1c(NC(=O)c2ccc([N+](=O)[O-])cc2)cccc1C(=O)Nc1c(C)cc(C(F)(C(F)(F)F)C(F)(F)F)cc1C [K2]	≥ 80	≥ 80	≥ 80	≥ 80	≥ 80	≥ 80	≥ 80
–	COc1c(NC(=O)c2ccc(F)cc2)cccc1C(=O)Nc1c(Cl)cc(C(F)(C(F)(F)F)C(F)(F)C(F)(F)F)cc1Cl (stereo not drawn) [C19]	≥ 80	≥ 80	≥ 80	≥ 80	≥ 80	≥ 80	≥ 80
–	COc1c(NC(=O)c2cc(F)ccc2F)cccc1C(=O)Nc1c(Cl)cc(C(F)(C(F)(F)F)C(F)(F)C(F)(F)F)cc1Br (stereo not drawn) [B153]	≥ 80	≥ 80	≥ 80	≥ 80	≥ 80	≥ 80	≥ 80
83 to 84	COc1c(NC(=O)c2cc([N+](=O)[O-])c(F)cc2C)cccc1C(=O)Nc1c(Cl)cc(C(F)(C(F)(F)F)C(F)(F)C(F)(F)F)cc1Br (stereo not drawn) [B212]	–	–	–	–	–	–	–
